Assay results reported in US20150080468A1, “COMPOSITION AND METHOD FOR PROCESSING AND DELIVERING BIOAVAILABLE METHIONINE ANALOGS, DERIVATIVES, AND PRECURSORS, THEREOF” (QUALITY LIQUID FEEDS, priority 2013, published 2015).
In brackets after ≈: the same amount, converted by molar mass. Several values for one entry are separate records, joined by “and”; a condition that tells them apart may be missing. Equal values may be shown once.

What was measured:
[1] = Sub-zero freezing and thawing of 3×, 4× and 100% HMBi after the 56 day study; format: physicochemical
Description: Each bar represents a data collection day: 1, 7, 14, 21, 29, 35, 42, 50, and 56 days. […] Mixing or re-circulation every other day will also maintain positional and product stability plus decrease product viscosity. Additionally, lower temperatures were tried for the 3× and 4× plus the HMBi straight or 100% additive after the 56 day study. […] However, the 100% HMBi was frozen solid. The liquid 100% HMBi freezes or solidifies at temperatures below 54° F. or 12° C. when the HMBi liquid is acted upon by an outside force such as mixing or pumping. This “Superfusion” property of the liquid 100% HMBi requires expensive heated storage equipment and plumbing to allow for use in a feed mill environment. After 72 hours in a deep freeze, the 3× and 4× also froze solid.

[2] = dairy cows; cited from earlier work
[3] = Freeze/thaw study: viscosity, flowability and superfusion (Example 2); format: physicochemical
Description: A range of inclusion rates of the HMBi was used in the second example to further investigate the reduction or retardation of the superfusion property of the methionine analog (HMBi) added to a simple feed mill blend molasses liquid product.
Eight formulations were evaluated in regards to product positional stability, product pH, temperature, viscosity as affected by temperature and time. Viscosity measurements were being used to determine flow ability thus whether or not the product can be pumped without external heating. If HMBi is stored in conditions where its temperature drops below 54° F. (12.2° C.), it will solidify or undergo superfusion which will not allow it to be pumped. As you can see in FIG. 6, the HMBi is solid and will remain solid for several hours while thawing. During the thawing process, the HMBi will liquefy with a solid ball surrounded by liquid. This solid ball could potentially plug the inside fixture of a tank not allowing for flow to the pump. During the Example E2 study, it took about eight days of the 100% HMBi in sub-zero temperatures before it underwent superfusion. The container in FIG. 6 had to be shaken quite vigorously to get the HMBi to solidify. It was not moved until the late afternoon of day 7. By the morning of day 8, it was solid.
The containers used were clear PET plastic one quart capacity with wide mouth openings. All samples were placed in a sub-zero freezer until the samples were solid. As stated above, it took eight days for the 100% HMBi to undergo the superfusion process, thus all eight samples were frozen solid at about −9° F. (−22.8° C.) which is exactly what was needed for Example E2.
Once all samples were frozen, they were moved to a force-draft fume hood to allow warm air to be drawn over the jars to hasten thawing. When the samples were soft enough to get a metal tipped thermometer into the samples, temperatures were taken and recorded. Viscosity was measured once the samples thawed enough; temperatures were also taken at that time. The process of freezing and thawing was repeated once. These samples were not stirred or shaken except for the 100% HMBi sample to get it to undergo superfusion.
All formulated samples were mixed by the procedures and using the equipment described in Example E1. The same temperature probe, viscometer, and pH meter were also used.
Observations and data were collected when the samples had thawed enough to allow for viscosity and temperature measurements. The freezing and thawing was repeated once to confirm results. Laboratory room temperature was between 68 to 70° F. Any product having a viscosity over 5,000 cPs using a spindle sO5 will not flow nor be pumpable without added heat.

[4] = cited from earlier work

Flowability / state ([1]; less than 0° F. or -17.8° C. for 24 hours): frozen solid
Further time until return to a liquid state ([1]; thawing after deep freeze): about 12 hours
Temperature at return to a liquid state ([1]; thawing after deep freeze): approximately 56 ° F.
Viscosity ([3]; Dec. 31, 2009, initial, 77.3-79.6 °F, spindle sO1/sO2): 37 cPs
Viscosity ([3]; Jan. 1, 2010, in freezer, -1.0 to 1.3 °F, spindle sO6 (100%: sO1)): 174 cPs and 173.6 cPs
Viscosity ([3]; Jan. 2, 2010, in freezer, -3.9 to -0.2 °F, spindle sO6 (100%: sO1)): 157.6 cPs
Physical state (no viscosity reading) ([3]; Jan. 14, 2010, 2:59-3:34 PM, thawing): solid
Physical state (no viscosity reading) ([3]; Jan. 14, 2010, 2:59-3:34 PM, thawing, listed as 100%): SOLID
Physical state (no viscosity reading) ([3]; Jan. 14, 2010, 3:50-4:15 PM, thawing): still solid
Physical state (no viscosity reading) ([3]; Jan. 14, 2010, 3:50-4:15 PM, thawing, listed as 100%): SOLID
Physical state (no viscosity reading) ([3]; Jan. 14, 2010, 4:40-5:10 PM, thawing, 47.7 °F): semi-solid
Physical state (no viscosity reading) ([3]; Jan. 14, 2010, 4:40-5:10 PM, thawing, 47.7 °F, listed as 100%): SEMI-SOLID
Physical state (no viscosity reading) ([3]; Jan. 15, 2010, 4:19-4:51 PM, second thaw, 45.0 °F): semi-solid
Physical state (no viscosity reading) ([3]; Jan. 15, 2010, 4:19-4:51 PM, second thaw, 45.0 °F, listed as 100%): SEMI-SOLID
Physical state (no viscosity reading) ([3]; Jan. 15, 2010, 10:55-11:20 AM, second freeze): solid
Physical state (no viscosity reading) ([3]; Jan. 15, 2010, 10:55-11:20 AM, second freeze, listed as 100%): SOLID
Physical state (no viscosity reading) ([3]; Jan. 15, 2010, 12:05-12:27, second thaw): semi-solid
Physical state (no viscosity reading) ([3]; Jan. 15, 2010, 12:05-12:27, second thaw, listed as 100%): SOLID
Time in sub-zero temperatures before superfusion ([3]; sub-zero freezer, shaken on day 7): about eight
Structure (SMILES): CSCCC(O)C(=O)OC(C)C (stereo not shown) [100% HMBi, isopropyl ester of 2-hydroxy-4-methylthiobutanoic acid]
metabolizable methionine provided [2]: 370 g/kg
rumen available HMB provided [2]: 370 g/kg
Viscosity at 20° C. ([4]; 20 °C): 19.2 mPa/s
Crystallization (solidification, superfusion) temperature ([4]; ambient pressure): below 54 ° F.
pH ([4]; in a 1% aqueous solution): 3.6
Solubility ([4]; water at 30° C.): 25.1 mg/mL (≈ 131 mM)
